How the values were obtained:
Assay type in all cases: functional
Staphylococcus aureus [1] = assay: Antibacterial activity against group 1 PVL+ community-acquired methicillin-resistant Staphylococcus aureus ST 59 expressing SCCmec type VT gene by agar dilution method
Staphylococcus aureus [2] = assay: Antibacterial activity against group 1-v1 PVL+ community-acquired methicillin-resistant Staphylococcus aureus ST 59 expressing SCCmec type V gene by agar dilution method
Staphylococcus aureus [3] = assay: Antibacterial activity against group 1-v2 PVL+ community-acquired methicillin-resistant Staphylococcus aureus ST 59 expressing SCCmec type X gene by agar dilution method
Staphylococcus aureus [4] = assay: Antibacterial activity against group 1-v3 PVL+ community-acquired methicillin-resistant Staphylococcus aureus ST 59 expressing SCCmec type V gene by agar dilution method
Staphylococcus aureus [5] = assay: Antibacterial activity against group 1-v4 PVL+ community-acquired methicillin-resistant Staphylococcus aureus ST 59 expressing SCCmec type VT gene by agar dilution method
Staphylococcus aureus [6] = assay: Antibacterial activity against group 2 PVL+ community-acquired methicillin-resistant Staphylococcus aureus ST 30 expressing SCCmec type IVc gene by agar dilution method
Staphylococcus aureus [7] = assay: Antibacterial activity against group 3 PVL negative community-acquired methicillin-resistant Staphylococcus aureus ST 239 expressing SCCmec type III gene by agar dilution method
Staphylococcus aureus [8] = assay: Antibacterial activity against group 3-v1 PVL negative community-acquired methicillin-resistant Staphylococcus aureus ST 900 expressing SCCmec type III gene by agar dilution method
Staphylococcus aureus [9] = assay: Antibacterial activity against group 4 PVL negative community-acquired methicillin-resistant Staphylococcus aureus ST 59 expressing SCCmec type IVx gene by agar dilution method
Staphylococcus aureus [10] = assay: Antibacterial activity against group 4-v1 PVL negative community-acquired methicillin-resistant Staphylococcus aureus ST 59 expressing SCCmec type X gene by agar dilution method
Staphylococcus aureus [11] = assay: Antibacterial activity against group 4-v2 PVL negative community-acquired methicillin-resistant Staphylococcus aureus ST 59 expressing SCCmec type IVx gene by agar dilution method
Staphylococcus aureus [12] = assay: Antibacterial activity against group 4-v3 PVL negative community-acquired methicillin-resistant Staphylococcus aureus ST 59 expressing SCCmec type IVc gene by agar dilution method
Staphylococcus aureus [13] = assay: Antibacterial activity against group 5 PVL negative community-acquired methicillin-resistant Staphylococcus aureus ST 5 expressing SCCmec type II gene by agar dilution method
Staphylococcus aureus [14] = assay: Antibacterial activity against group 6 PVL negative community-acquired methicillin-resistant Staphylococcus aureus ST 8 expressing SCCmec type IVx gene by agar dilution method

Measured: MIC

Cc1onc(-c2ccccc2)c1C(=O)N[C@@H]1C(=O)N2[C@@H]1SC(C)(C)[C@@H]2C(=O)O [OXACILLIN]
4 µg/mL: Staphylococcus aureus [4] | Staphylococcus aureus [5]
64 µg/mL: Staphylococcus aureus [2] | Staphylococcus aureus [3] | Staphylococcus aureus [11]
≥ 128 µg/mL: Staphylococcus aureus [7] | Staphylococcus aureus [8] | Staphylococcus aureus [9] | Staphylococcus aureus [13]
32 µg/mL: all other assays above
